Measurements: article PMC12514245, “Impaired migration and lung invasion of human melanoma by a novel small molecule targeting the transmembrane domain of death receptor p75^NTR” (EMBO Molecular Medicine, 2025)
“And” between values parts separate entries of the source, which are not always exact repeats. Identical values can stand only once. Values belong to the molecule of their own block, whether it stands above or below them.

How the values were obtained:
p75^NTR TMD = target: T1, p75^NTR TMD (Homo sapiens, UniProt P08138); assay: AraTM assay, wild-type p75NTR TMD (GFP/OD630); format: cell-based; details: structure-activity comparison
T1 sequence (P08138 250-275 limits assumed): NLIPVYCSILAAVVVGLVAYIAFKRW

AS19 E. coli = assay: Bacterial toxicity (OD630) in the AraTM assay; format: cell-based; details: compared with Div17E5
A875 NT cells [1] = assay: Wound healing cell motility assay, A875 NT; format: cell-based, human; details: for Wound area (Fold), Mean / Wound area (Fold), individual replicates: 10uM
Method: For wound healing assay, cells were grown until confluency and subjected to a wound across the cell mono-layer. Cells were then incubated with serum-free media either with DMSO or a small molecule (with or without 5 µM Q_VD_poH) and imaged at specific time-points. Cell migration is reflected as fold change in wound area over time.

[2] = test system: neurons and melanoma cells; design: method as in Goh et al, 2018; details: dependent on p75NTR and JNK activity; ref Goh et al, 2018; cited from earlier work
melanoma tumor = test system: melanoma tumor; design: method as in Goh et al, 2018; details: ref Goh et al, 2018; cited from earlier work
WM115 cells = assay: Boyden chamber chemotaxis assay, WM115; format: cell-based, human; details: 100 ng/ml NGF
Method: For Boyden chamber assay, Corning® BioCoat™ Matrigel® Invasion Chambers 8.0 µm PET Membrane were used (cat. no. 354480). A875 NT or WM115 cells were serum-starved for 16 h and then seeded at 60,000 cells per well in serum-free media under different conditions, including DMSO (vehicle) or small molecules Div17E5 or Np75-4A22 at different concentrations to the top chamber of the Matrigel-coated trans-well chamber. The pan-caspase inhibitor Q_VD_poH (at 5 µM) was also introduced in the top chamber in some experiments. Two different chemoattractants, NGF (at 50 ng/ml or 100 ng/ml as indicated) or 10% FBS were added to the bottom chamber. Assays were carried out for 8 h after which filters were fixed in 4% PFA and stained with DAPI. Cells that had remained on the top of the filter were gently scrapped away with a cotton tip. The filter lower side was imaged on an inverted fluorescence microscope and counted using ImageJ software (NIH).

A875 shp75 cells [3] = assay: Boyden chamber chemotaxis assay, A875 shp75; format: cell-based, human; details: NGF as chemoattractant
[4] = target: T2, fascin/p75^NTR interaction (Homo sapiens, UniProt P08138); assay: Co-immunoprecipitation of fascin with p75NTR in A875 cells; format: cell-based; details: NGF, experiments 1-3
T2 construct: endogenous in cells; host or cells: A875-NT (and A875 sh-p75NTR knock-down control)
T2 sequence (P08138 29-427): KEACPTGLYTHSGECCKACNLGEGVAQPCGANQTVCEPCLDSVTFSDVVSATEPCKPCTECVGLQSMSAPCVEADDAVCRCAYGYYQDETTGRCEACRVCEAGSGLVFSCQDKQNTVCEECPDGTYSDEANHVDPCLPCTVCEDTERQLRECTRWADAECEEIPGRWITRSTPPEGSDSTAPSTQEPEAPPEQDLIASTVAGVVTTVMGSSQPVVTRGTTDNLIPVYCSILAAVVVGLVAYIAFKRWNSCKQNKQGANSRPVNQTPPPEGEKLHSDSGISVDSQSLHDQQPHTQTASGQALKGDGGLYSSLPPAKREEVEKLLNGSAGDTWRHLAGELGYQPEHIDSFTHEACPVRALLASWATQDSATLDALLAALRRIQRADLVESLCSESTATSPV
Method: For co-immunoprecipitation analysis of p75^NTR/fascin interactions, A875 sh-p75^NTR and A875-NT cells were plated in a 10 cm tissue culture dish at a confluency of 3 × 10^6 cells/dish in normal growth media. Twenty-four hours after plating, the cells were treated with 1 μM 4A22 and NGF (100 ng/ml) for 12 h prior to harvest and lysis in lysis buffer (50 mM Tris/HCl pH 7.5, 1 mM EDTA, 270 mM Sucrose, 1% (v/v) Triton X-100, 0.1% (v/v) 2-mercaptoethanol and 60 mM n-Octyl-β-D glucopyranoside) containing protease inhibitor cocktail. The cellular extracts were then centrifuged at 4 °C top speed on a benchtop centrifuge for 1 min and the supernatant was collected. For immunoprecipitation, A875 cell extracts were incubated for 16 h at 4 °C on a rotating wheel with 0.8 μg of anti-p75^NTR antibody (ANT-007, Alomone) and then incubated with Sepharose protein-G beads (GE Healthcare). The beads were collected by brief centrifugation (2 min, 2500 rpm, 4 °C), washed three times with 1 ml of Wash Buffer (with composition same as the lysis buffer). After the last wash, pelleted beads were aspirated off the wash buffer followed by addition of Laemmli sample buffer and analysis by SDS–PAGE followed by Western Blot using anti-fascin antibody (MA5-11483, Invitrogen).

[5] = test system: fascin in Triton-insoluble fraction of A875 NT cells; assay: Detergent-insolubility assay of fascin, A875 NT; format: cell-based, human; details: NGF; insoluble/total fascin, n1-n3
Method: A single cell suspension was obtained by trypsinization followed by centrifugation and detergent extraction with lysis buffer (with 0.5% Triton X-100). Then, immediately centrifuged at 8700 g for 3 min. The resulting pellets (containing the Triton X-100-resistant proteins) were suspended in lysis buffer without Triton X-100. In parallel, cells were centrifuged and then directly suspended in lysis buffer. The Triton X-100- resistant proteins and total cell lysates were analyzed by SDS–PAGE and Western blotting with anti-fascin antibody.

A875 NT cells [6] = assay: Filopodia per cell (phalloidin staining), A875 NT; format: cell-based, human
Method: (§1) For assessment of actin filaments, A875 cells were plated on glass coverslips in 24-well plate at a confluency of 3 × 10^4 cells/well. One day after plating, the cells were treated with 1 μM or 5 μM Np75-4A22 and NGF (100 ng/ml) or PBS for 24 h. Cells were fixed in 4% paraformaldehyde, permeabilized in 0.1% Triton-X-100, stained with Phalloidin-iFluor 488 (Abcam) at 1:2000 dilution and DAPI for 1 h. Coverslips were mounted and visualized in a laser confocal microscope.

A875 shp75 cells [7] = assay: Filopodia per cell (phalloidin staining), A875 shp75; format: cell-based, human; details: for filopodia per cell (well mean): A875 shp75 cells, wells 1-4
Method: as §1

Molecule: COc1ccc(-c2cncc(Nc3ccc([N+](=O)[O-])cc3)n2)cc1 [MS_18]
activity in the AraTM assay (p75^NTR TMD): MS_18 more potent than Np75-3A01, -3A02
bacterial toxicity, as assessed by OD630 (AS19 E. coli): somewhat lower bacterial toxicity
wound healing assay, comparison of Div17E5, MS_18 and MS_63 (A875 NT cells [1]; 10 µM): lower potency
Wound area (Fold), Mean (A875 NT cells [1]; 0 hours): 1 Fold
Wound area (Fold), individual replicates (A875 NT cells [1]; 0 hours): 1.000 Fold
Wound area (Fold), Mean (A875 NT cells [1]; 3 hours): 0.941 Fold
Wound area (Fold), individual replicates (A875 NT cells [1]; 3 hours): 0.922 Fold and 0.959 Fold
Wound area (Fold), Mean (A875 NT cells [1]; 6 hours): 0.91 Fold
Wound area (Fold), individual replicates (A875 NT cells [1]; 6 hours): 0.89 Fold and 0.929 Fold
Wound area (Fold), Mean (A875 NT cells [1]; 9 hours): 0.867 Fold
Wound area (Fold), individual replicates (A875 NT cells [1]; 9 hours): 0.834 Fold and 0.901 Fold
Wound area (Fold), Mean (A875 NT cells [1]; 12 hours): 0.851 Fold
Wound area (Fold), individual replicates (A875 NT cells [1]; 12 hours): 0.803 Fold and 0.899 Fold
Wound area (Fold), Mean (A875 NT cells [1]; 15 hours): 0.791 Fold
Wound area (Fold), individual replicates (A875 NT cells [1]; 15 hours): 0.728 Fold and 0.855 Fold
Wound area (Fold), Mean (A875 NT cells [1]; 18 hours): 0.817 Fold
Wound area (Fold), individual replicates (A875 NT cells [1]; 18 hours): 0.79 Fold and 0.845 Fold
Wound area (Fold), Mean (A875 NT cells [1]; 21 hours): 0.775 Fold
Wound area (Fold), individual replicates (A875 NT cells [1]; 21 hours): 0.722 Fold and 0.827 Fold
Wound area (Fold), Mean (A875 NT cells [1]; 24 hours): 0.737 Fold
Wound area (Fold), individual replicates (A875 NT cells [1]; 24 hours): 0.692 Fold and 0.783 Fold

Molecule: O=C(/C=C/c1cccnc1)c1ccccc1O [NSC49652]
apoptotic cell death [2]: triggered apoptotic cell death
melanoma tumor growth (melanoma tumor): inhibited melanoma tumor growth

FASCIN/P75 [4]: 0.1943 and 0.2161 and 0.2851
FASCIN/P75 Fold change ([4]; relative to UT): 1.97 and 2.116 and 1.36
Molecule: NGF: nerve growth factor, neurotrophin ligand of p75NTR, used as chemoattractant
values normalized to vehicle, mean (Figure 6E) (WM115 cells; mean of EXP1-3): 1.5693
values normalized to vehicle (Figure 6E) (WM115 cells; single experiments EXP1-3): 1.456 and 1.588 and 1.664
Fold change (invading cells), n1-n4 (A875 shp75 cells [3]): 0.89 Fold and 1.06 Fold and 1.42 Fold and 1.05 Fold
Fold change (invading cells), Mean (A875 shp75 cells [3]; N=4): 1.110 Fold
Fold change (compared to untreated cells) [5]: 3.421 and 2.292 and 2.425
Filopodia per cell, mean of experiment (A875 NT cells [6]; 100 ng/ml NGF alone, A875 NT, EXP1-EXP3): 50.0863 and 44.7441 and 46.2718
Filopodia per cell, mean of three experiments (A875 NT cells [6]; 100 ng/ml NGF alone, A875 NT, mean of EXP1-3): 47.0341
Filopodia per cell, mean of well (A875 NT cells [6]; 100 ng/ml NGF alone, A875 NT, well mean): 36.2857 and 52.7857 and 51.5714 and 47.2222 and 38.6667 and 55.1429 and 44.0556
Filopodia per cell, mean of the well (A875 NT cells [6]; 100 ng/ml NGF, EXP1 NT, well mean): 59.8571 and 51.381 and 46.8571 and 42.25
filopodia per cell (mean of 3 experiments) (A875 shp75 cells [7]; A875 shp75, 100ng/ml NGF): 33.6544
filopodia per cell (mean of one experiment) (A875 shp75 cells [7]; A875 shp75, 100ng/ml NGF, EXP1-EXP3): 32.2411 and 36.1597 and 32.5625
filopodia per cell (well mean) (A875 shp75 cells [7]; EXP1, 100 ng/ml NGF): 25.2143 and 35.5 and 37.1667 and 31.0833
filopodia per cell (well mean) (A875 shp75 cells [7]; EXP2, 100 ng/ml NGF): 37 and 30.3889 and 32.6667 and 44.5833
